Laboratory results: ChEMBL document CHEMBL1201862, “PubChem BioAssay data set” (2004)
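Cells were grown in 96-well plates and exposed to each compound for 48 hours at five concentrations; endpoints were interpolated linearly between bracketing concentrations, or set to the highest concentration if not reached. The concentration for 50% growth inhibition is given as GI50.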 The source made the active and inactive calls. Cut-off read from the data, not from the text of the source: active = GI50 up to about 1.1 µM and inactive = higher.

What was measured:
Test in all cases: NCI-60 cell line screen, 48 h
[1] = tested on: HCT-15
[2] = tested on: MCF7
[3] = tested on: HCC 2998
[4] = tested on: SNB-19
[5] = tested on: UACC-62
[6] = tested on: NCI-H460
[7] = tested on: NCI/ADR-RES
[8] = tested on: HT-29
[9] = tested on: Malme-3M
[10] = tested on: SR
[11] = tested on: Hs-578T
[12] = tested on: HCT-116
[13] = tested on: OVCAR-3
[14] = tested on: IGROV-1
[15] = tested on: NCI-H23
[16] = tested on: OVCAR-5
[17] = tested on: SN12C
[18] = tested on: SK-OV-3
[19] = tested on: HL-60
[20] = tested on: BT-549

Compound	GI50 [1] [µM]	GI50 [2]	GI50 [3]	GI50 [4]	GI50 [5]	GI50 [6]	GI50 [7]	GI50 [8]	GI50 [9]	GI50 [10]	GI50 [11]	GI50 [12]	GI50 [13]	GI50 [14]	GI50 [15]	GI50 [16]	GI50 [17]	GI50 [18]	GI50 [19]	GI50 [20]
CN(C)c1ccc(/C=c2\c3cc([N+](=O)[O-])ccc3n3c2cc(-c2ccccc2)[n+]3C)cc1	15.5	0.791 µM (active)	2.28 µM (inactive)	0.925 µM (active)	0.678 µM (active)	3.13 µM (inactive)	39.8 µM (inactive)	1.52 µM (inactive)	0.55 µM (active)	0.29 µM (active)	1.62 µM (inactive)	0.885 µM (active)	1.46 µM (inactive)	0.964 µM (active)	2.75 µM (inactive)	3.63 µM (inactive)	0.454 µM (active)	3.92 µM (inactive)	0.292 µM (active)	1.23 µM (inactive)
CCOP(=O)(OCC)/C(C#N)=C/c1[nH]cnc1C	> 100	> 100 µM (inactive)	> 100 µM (inactive)	> 100 µM (inactive)	> 100 µM (inactive)	> 100 µM (inactive)	> 100 µM (inactive)	> 100 µM (inactive)	> 100 µM (inactive)	> 100 µM (inactive)	> 100 µM (inactive)	> 100 µM (inactive)	> 100 µM (inactive)	> 100 µM (inactive)	> 100 µM (inactive)	> 100 µM (inactive)	> 100 µM (inactive)	> 100 µM (inactive)	> 100 µM (inactive)	> 100 µM (inactive)
C/C(=N\NC(=S)NCCNC(=S)N/N=C(\C)c1ccccn1)c1ccccn1	1.84	4.39 µM (inactive)	7.28 µM (inactive)	9.46 µM (inactive)	2.62 µM (inactive)	1.61 µM (inactive)	1.92 µM (inactive)	2.07 µM (inactive)	2.54 µM (inactive)	0.514 µM (active)	> 73.1 µM (inactive)	2.75 µM (inactive)	2.74 µM (inactive)	2.07 µM (inactive)	4.41 µM (inactive)	3.98 µM (inactive)	1.94 µM (inactive)	4.7 µM (inactive)	0.789 µM (active)	2.36 µM (inactive)
CC(C)=CC(=O)c1[nH]c2ccccc2c1CC(=O)NCCc1cn(C(c2ccccc2)(c2ccccc2)c2ccccc2)cn1	3.89	2.99 µM (inactive)	1.97 µM (inactive)	6.05 µM (inactive)	1.97 µM (inactive)	2.97 µM (inactive)	3.17 µM (inactive)	3.32 µM (inactive)	5.78 µM (inactive)	0.979 µM (active)	16.8 µM (inactive)	2.77 µM (inactive)	3.84 µM (inactive)	3.84 µM (inactive)	4.69 µM (inactive)	3.39 µM (inactive)	2.81 µM (inactive)	13.5 µM (inactive)	1.26 µM (inactive)	3.25 µM (inactive)
Cc1[nH]c2ccccc2c1/C=N/c1ccc(/N=C/c2c(C)[nH]c3ccccc23)cc1	32	16.5 µM (inactive)	36.9 µM (inactive)	61.9 µM (inactive)	42.6 µM (inactive)	41.2 µM (inactive)	80.5 µM (inactive)	34 µM (inactive)	30.8 µM (inactive)	19.2 µM (inactive)	47 µM (inactive)	17.5 µM (inactive)	41 µM (inactive)	49.9 µM (inactive)	29.1 µM (inactive)	> 100 µM (inactive)	61.2 µM (inactive)	49.8 µM (inactive)	14.7 µM (inactive)	47.9 µM (inactive)
Cc1cc(=O)oc2c(C)c3oc(CBr)cc3cc12	18.2	25.2 µM (inactive)	15.8 µM (inactive)	29 µM (inactive)	18.5 µM (inactive)	17.2 µM (inactive)	19.4 µM (inactive)	27.4 µM (inactive)	19.2 µM (inactive)	33 µM (inactive)	35.6 µM (inactive)	18.5 µM (inactive)	35.7 µM (inactive)	16.8 µM (inactive)	18.3 µM (inactive)	16.8 µM (inactive)	19.5 µM (inactive)	27.4 µM (inactive)	18.3 µM (inactive)	15.3 µM (inactive)
NC1CC(=O)c2c(I)sc(I)c21 (stereo not given)	9.31	25.4 µM (inactive)	22 µM (inactive)	23.8 µM (inactive)	16.7 µM (inactive)	17.7 µM (inactive)	26.9 µM (inactive)	20.2 µM (inactive)	13.7 µM (inactive)	13.4 µM (inactive)	30.3 µM (inactive)	12.4 µM (inactive)	20 µM (inactive)	15.2 µM (inactive)	17.1 µM (inactive)	24.1 µM (inactive)	27.3 µM (inactive)	44.5 µM (inactive)	4.24 µM (inactive)	18.4 µM (inactive)
